From patent US6833353B1, “Use of immunosuppressants for MMP mediated diseases” (Fujisawa Pharmaceutical Co., Ltd., priority 1998, dated 2004)
Marks after values point to notes of the source that are not given here.

Key:
Type in all cases: in vivo, Lewis rats
IFN-γ = IFN-γ level in granulomatous tissue extract (ELISA), implant model; conditions: day 14
Method: (§1) Bone and excess tissue overlying the cartilage was removed under sterile conditions, in an airflow hood. The septum was washed in 70% ethanol before the cartilage was cut to a weight of 40×2mg. The cartilages were wrapped tightly in sterile cotton squares and soaked in 0.1 ml of a 10 mg/ml homogenized suspension of heat-killed Mycobacterium tuberculosis H37RA (Difco) in saline. Eight cartilages were stored in −20° C., these were to measure the levels of collagen in non-implanted cartilages.
(§2) Eight weeks old female Lewis rats were anaesthetized using halothane. The stomach area was shaved and swabbed with ethanol. […]
(§3) The granulomatous tissues were homogenized in 1 ml of 50 mM Tris, pH 7.5 containing 5 mM CaCl2, 0.1% Triton X-100 and 0.02% NaN3) After centrifugation of the extract at 15000 rpm for 10 min to remove debris, the supernatant was assayed for collagenolytic activity, gelatinolytic activity, tumor necrosis factor-α (TNF-α) level and Interferon-γ (IFN-γ) level. Collagenolytic and gelatinolytic activities in the extracts were measured using commercial assay kits (YAGAI, Japan). Cytokines levels were also measured using ELISA kits (Cosmo Bio, Japan). The protein contents in the extracts was determined using the method of Lowry.
(§4) Data is expressed as mean±SEM. The significance of differences was determined by Dunnett's multiple comparison test (*p<0.05, **p<0.01).

TNF-α = TNF-α level in granulomatous tissue extract (ELISA), implant model; conditions: day 14
Method: as §1, §2, §3, §4

collagenase = experiment: Collagenolytic activity in granulomatous tissue extract, implant model; conditions: day 14
Method: as §1, §2, §3, §4

gelatinase = experiment: Gelatinolytic activity in granulomatous tissue extract, implant model; conditions: day 14
Method: as §1, §2, §3, §4

cartilage degradation = experiment: Cartilage degradation in cotton-wrapped cartilage implant model (hydroxyproline content of implanted cartilage)

`C=CC[C@@H]1/C=C(\C)C[C@H](C)C[C@H](OC)[C@H]2O[C@@](O)(C(=O)C(=O)N3CCCC[C@H]3C(=O)O[C@H](/C(C)=C/[C@@H]3CC[C@@H](O)[C@H](OC)C3)[C@H](C)[C@@H](O)CC1=O)[C@H](C)C[C@@H]2OC` [FK506, 17-allyl-1,14-dihydroxy-12-[2-(4-hydroxy-3-methoxycyclohexyl)-1-methylvinyl]-23,25-dimethoxy-13,19,21,27-tetramethyl-11,28-dioxa-4-azatricyclo[22.3.1.0^4,9] octacos-18-ene-2,3,10,16-tetraone] was tested, and the “inhibition (%) IFN-γ” value (IFN-γ; 1.0 mg/kg po once daily) was 58.1%, the “inhibition (%) IFN-γ” value (IFN-γ; 3.2 mg/kg po once daily) was 73.4* % and the “inhibition (%) TNF-α” value (TNF-α; 1.0 mg/kg po once daily) was 43.9** %. The “inhibition (%) TNF-α” value (TNF-α; 3.2 mg/kg po once daily) was 56.6** %, the “inhibition (%) collagenase” value (collagenase; 1.0 mg/kg po once daily) was 7.7% and the “inhibition (%) collagenase” value (collagenase; 3.2 mg/kg po once daily) was 29.8%. For the same compound, the “inhibition (%) gelatinase” value (gelatinase; 1.0 mg/kg po once daily) was 67.9* %, the “inhibition (%) gelatinase” value (gelatinase; 3.2 mg/kg po once daily) was 82.1** % and the “Recovery (%) of Hydroxyproline” value (cartilage degradation; 3.2 mg/kg po once daily, 14 days, implanted bovine nasal cartilage, rat) was 61.9** %. For the same compound, the “inhibition of the decrease of hydroxyproline contents in cartilage” value (cartilage degradation; 3.2 mg/kg po, uid, rat implant model) was 62%.
